{"source": "paper PMC7395176", "about": "“Retromer stabilization results in neuroprotection in a model of Amyotrophic Lateral Sclerosis” (Nature Communications, 2020)", "key": {"[1]": {"tested_on": "Mouse cortical neurons (E16.5)", "experiment": "Micro Electrode Array (MEA) recording of neuronal firing", "type": "cell-based", "method": "We assessed the cytotoxicity of compound 2a, measuring survival of Neuro2a cells exposed to increasing 2a concentrations. […] We next checked for toxic effects of compound 2a in primary neuronal cultures coupled with Micro Electrode Array (MEA) devices. Mouse cortical neurons (E16.5) were plated on MEAs, kept in culture for 14 days to develop firing activity and recorded in presence of 2a.\nPrimary neuronal cultures were established from the cerebral cortex of E16.5 C57BL6J embryos. Upon dissection, cells were plated on MEA biochips (60 electrode MEA biochips with 200 µm electrode spacing and 30 µm electrodes diameter with an integrated reference electrode, Multichannel Systems GmbH) at the density of 3 × 10^5 cells/MEA and kept in Neurobasal medium supplemented with B27 for 14 days. At day 14 neuronal cultures were exposed to increasing concentration of compound 2a (1, 3, 10, 30, and 100 µM) in Krebs–Ringer–Hepes buffer (KRH, 130 mM NaCl, 5 mM KCl, 1.2 mM KH2PO4, 1.2 mM MgSO4, 2 mM CaCl2, 25 mM Hepes, 0.6% glucose, 1% glutamine, Sigma–Aldrich). Firing activity was recorded using a pre-amplifier stage (MEA-1060-Inv-BC-Standard, gain: 55, bandwidth: 300 Hz–8 kHz, MCS GmbH), an amplification and filtering stage (FA64S, gain 20, bandwidth: 10 Hz–8 kHz, MCS GmbH) and a data acquisition device (sampling frequency: 25 kHz). Then, off-line signal processing was performed, and raw data were analyzed by MC-Rack Software version 4.6.2 (MCS GmbH).\nPanels a and b; neuronal activityfrom the same electrode of a representative MEA biochip (3x105 cortical neurons/chip, n=5 independent chips from 2 independent experiments) treated with 2a, at the concentration of 1 µM (a) and 100 µM (b). Neurons received increasing amounts of lead 2a (1,3, 10, 30 and 100 µM) and were recorded every 5 min; c, quantifications of the firing activityreported as fold changes of spike numbers (box plots show median values; whiskers show 10-90 percentile) measured at the concentration of 1\nµM. Kruskal-Wallis testfollowed by Dunn’s multiple comparison test was used to analyze the […]"}, "[2]": {"tested_on": "SOD1^G93A aggregates", "experiment": "Treatment of G93A mice from day 83 to day 103: motor performance, SOD1 aggregates (blue-native PAGE)", "type": "in vivo", "conditions": "10 mg/kg daily", "excerpt": "SOD1 mutations increase its propensity to aggregate in cells. We checked whether compound 2a could reduce the accumulation of SOD1^G93A aggregates in vivo. Starting at postnatal day 83, we injected G93A mice and WT littermates daily with compound 2a. We scored motor performances in vehicle- and compound 2a-treated G93A mice until day 103. […] We resolved SC protein extracts by blue-native polyacrylamide gel electrophoresis, and probing them with anti-SOD1 antibodies we observed high molecular weight smears in G93A mice that were absent in WT litters. The intensity of such high MW entities was lowered in G93A mice treated with compound 2a (Supplementary Fig. 13b, c).\nG93A mice and their WT litters were injected daily with vehicle or compound 2a (10 mg/kg, from day 83 to day 103). […] We incubated 250 µL of each extract with 100 mM Iodoacetamide (Sigma–Aldrich). […]\nn=4 independent mice/group, data are collected from 1 experiment). […] Dividing black linesmark lanes cropped from the same filter;c, quantifications of the mutant forms of the SOD1 from mice treated with sham or with compound 2a (G93A-v: n=6 independent mice, G93A-2a: n=6 independent mice, data are derived from 2 independent experiments). […]"}, "[3]": {"target": "VPS35 (Mus musculus, UniProt Q9EQH3+Q9QZ88)", "experiment": "Cycloheximide (CHX) chase assay of VPS35 degradation in Neuro2a cells", "type": "cell-based", "parameters": "We incubated Neuro2a cells with compounds 2a–6a (10 µM); endogenous in cells; host or cells: Neuro2a (ATCC CCL-131)", "conditions": "10 µM 24 h pretreatment, CHX up to 8 h", "method": "We next measured VPS35 degradation rates by a cycloheximide (CHX) chase assay. Neuro2a cells received vehicle or compound 2a (10 µM) for 24 h, then CHX was added and VPS35 levels were measured by WB.\nCycloheximide (CHX) assay was done on Neuro2a cells seeded in 6-well plates and incubated with compound 2a (10 µM) or vehicle for 24 h. We next added CHX (Sigma–Aldrich) at 10 µg/mL and cells were collected at 0, 2, 4, and 8 h for the time-course assay of VPS35 levels by WB.\nCompound 2a stabilizes VPS35 levels in Neuro2a cells\nA cycloheximide (CHX) chase assay was performed to determine the degradation rate of VPS35 in Neuro2a cells (3x10^5 cells/well). Cells were treated with vehicle or 2a (10 µM) for 24 h, and then chased with CHX (10 µg/mL) for 2, 4 and 8h.\nWBs for VPS35 and β-Actin levels. Quantifications of normalized VPS35 levels (means normalized ratios ± SEM versus the time 0) are shown inpanel b (vehicle: n=10 independent wells, 2a: n=8 independent wells obtained from 3 independent experiments; control vs. 2a at 8 hours: p=0.009). c, quantitative real time PCR for Vps35, Vps26 and Vps29 mRNA (Vps35: controls n=8 independent wells; 2a: n=9 independent wells; Vps26 and Vps29: n=9 independent wells/group); data were collected from 3 independent experiments. […]"}}}
{"smiles": "NC(N)=N/N=C/c1cccc(/C=N/N=C(N)N)c1", "note": "[compound 2a, phenyl-1,3-bis-guanylhydrazone]", "values": [{"measurement": "neuronal firing", "setting": "[1]; 10µM", "value": "does not perturb neuronal firing"}, {"measurement": "neuronal firing (spikes)", "setting": "[1]; 100 μM of 2a", "value": "slight reduction of spikes"}, {"measurement": "neuronal firing", "setting": "[1]; low concentrations of 2a", "value": "did not alter neuronal firing"}, {"measurement": "motor deficits (latency to fall)", "setting": "[2]", "value": "general attenuation of motor deficits"}, {"measurement": "intensity of high MW SOD1 entities (blue-native PAGE)", "setting": "[2]; SC extracts", "value": "lowered"}, {"measurement": "VPS35 degradation in CHX chase", "setting": "[3]", "value": "protected VPS35 from degradation"}]}
